The results in this text go back to PubChem BioAssay (NCI).

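Where inhibition never reached the appropriate level, the endpoint shown equals the highest concentration tested. Otherwise, values were interpolated linearly from a five-concentration, 48-hour dose response in 96-well plates. TGI denotes the concentration required for complete inhibition of growth.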

Some test systems named below: NCI-H522 lung; MDA-N; HOP-62 NSCLC; BT-549 breast; OVCAR-5 ovarian; RXF 393 renal; MCF7 breast; IGROV1 ovarian; U251 CNS; LOX IMVI melanoma; NCI-H460 lung; SK-MEL-5 melanoma; MALME-3M melanoma; M14 melanoma; UACC-62 melanoma; UO-31 renal; HS 578T breast; DU-145 prostate; SN12C renal; HCC-2998 colon.
Common to all, as to experiment: NCI tumour cell line growth inhibition, 48 h

In the case of `CCOC(=O)c1nc2ccc(C(F)(F)F)cc2nc1NCc1ccc(Cl)c(Cl)c1`, the TGI in the test with NCI-H522 lung was 33.5 µM; with MDA-N it was greater than 100 µM; in the test on HOP-62 NSCLC it was 52.1 µM; in the test on BT-549 breast, greater than 100 µM; in the test with OVCAR-5 ovarian it was greater than 100 µM; in the test on RXF 393 renal, 81.5 µM. For the same compound, the TGI in the test with MCF7 breast was greater than 100 µM; in the test on IGROV1 ovarian, 55.4 µM; in the test with U251 CNS, greater than 100 µM; in the test with LOX IMVI melanoma, greater than 100 µM; in the test on NCI-H460 lung, greater than 100 µM; with SK-MEL-5 melanoma, greater than 100 µM. The TGI with MALME-3M melanoma was 99.1 µM; with M14 melanoma it was greater than 100 µM; with UACC-62 melanoma, greater than 100 µM; in the test with UO-31 renal it was greater than 100 µM; with HS 578T breast, 80.7 µM.

As for `O=C(NC(C(F)(F)F)(C(F)(F)F)P(=O)(c1ccccc1)c1ccccc1)C(C(F)(F)F)C(F)(F)F`, the TGI with NCI-H522 lung is 71.6 µM; in the test with MDA-N it was 44.2 µM; with HOP-62 NSCLC, greater than 100 µM; in the test with DU-145 prostate, greater than 100 µM; in the test on OVCAR-5 ovarian, greater than 100 µM; in the test with RXF 393 renal, 68.2 µM. The TGI is 62.1 µM in the test with MCF7 breast; 57.7 µM in the test with IGROV1 ovarian; greater than 100 µM in the test on U251 CNS; 58.9 µM in the test with LOX IMVI melanoma; greater than 100 µM with NCI-H460 lung; 77 µM in the test on SN12C renal. Moreover, the TGI in the test with SK-MEL-5 melanoma is 37 µM; in the test with HCC-2998 colon, greater than 100 µM; with MALME-3M melanoma, 33.6 µM; in the test on M14 melanoma it was 36.3 µM; with UACC-62 melanoma, greater than 100 µM; in the test on HS 578T breast, greater than 100 µM.

For `NCCCNCCCNCCCN`, the TGI with NCI-H522 lung, in the test on MDA-N, with HOP-62 NSCLC, in the test on BT-549 breast, in the test with DU-145 prostate and in the test on OVCAR-5 ovarian was greater than 100 µM throughout. The TGI in the test with RXF 393 renal, in the test on MCF7 breast, in the test with IGROV1 ovarian, in the test on U251 CNS, in the test on LOX IMVI melanoma and with SN12C renal was greater than 100 µM in each case. Moreover, the TGI in the test on SK-MEL-5 melanoma, with HCC-2998 colon, with MALME-3M melanoma, in the test on M14 melanoma, in the test on UACC-62 melanoma and in the test with UO-31 renal was greater than 100 µM throughout.

Consider `COc1ccc(/C=C2/C(C)=NN(c3cccc(Cl)c3)/C2=N/c2nc3ccccc3s2)cc1`, for which the TGI in the test with NCI-H522 lung amounted to 35.2 µM; with MDA-N it was 41.6 µM; with HOP-62 NSCLC, 47.2 µM; in the test with DU-145 prostate it was 39.4 µM; in the test with OVCAR-5 ovarian, 69.6 µM; in the test with RXF 393 renal it was 26.8 µM. For the same compound, the TGI in the test with MCF7 breast was 84.4 µM; in the test on IGROV1 ovarian, 46.7 µM; with U251 CNS, 47 µM; in the test on LOX IMVI melanoma, 33.4 µM; with NCI-H460 lung it was 43.2 µM; with SK-MEL-5 melanoma it was 33.7 µM. Moreover, the TGI in the test with HCC-2998 colon is 33.2 µM; in the test with M14 melanoma, 60.8 µM; in the test on UO-31 renal it was 44.1 µM; with HS 578T breast, 66.1 µM.

Regarding `C[C@H]1[C@H](C)N(Cc2ccccc2)P(=O)(C(O)/C=C/c2ccccc2)N1Cc1ccccc1` (stereo partly specified), the TGI with NCI-H522 lung is greater than 25 µM; in the test on MDA-N, 13.6 µM; with HOP-62 NSCLC, greater than 25 µM; with BT-549 breast, greater than 25 µM; in the test with OVCAR-5 ovarian, 18.8 µM; in the test on RXF 393 renal it was 15.6 µM. Moreover, the TGI in the test with MCF7 breast is greater than 25 µM; in the test with IGROV1 ovarian, greater than 25 µM; in the test with U251 CNS it was 10 µM; in the test on LOX IMVI melanoma, 14.5 µM; in the test with NCI-H460 lung it was 10.2 µM; in the test with SN12C renal, 8.75 µM. The TGI in the test on SK-MEL-5 melanoma is 8.7 µM; in the test with HCC-2998 colon, 15.5 µM; in the test on MALME-3M melanoma, 13.4 µM; in the test with M14 melanoma, 9.05 µM; in the test with UACC-62 melanoma, 8.13 µM; in the test on UO-31 renal, 10.7 µM. Moreover, the TGI in the test on HS 578T breast worked out at 12.3 µM.

As to `O=C(O)C1CC2C3CCC2C1C3=O` (stereo unspecified), the TGI with NCI-H522 lung, in the test on MDA-N, in the test with HOP-62 NSCLC, in the test with DU-145 prostate, with OVCAR-5 ovarian and in the test on RXF 393 renal was greater than 100 µM each time. The TGI with MCF7 breast, in the test with IGROV1 ovarian, in the test on U251 CNS, with LOX IMVI melanoma, in the test on NCI-H460 lung and in the test on SN12C renal was greater than 100 µM throughout. The TGI with SK-MEL-5 melanoma, in the test on HCC-2998 colon, in the test with MALME-3M melanoma, with M14 melanoma, in the test with UACC-62 melanoma and in the test on UO-31 renal was greater than 100 µM throughout. This compound also yielded a TGI in the test with HS 578T breast greater than 100 µM.

Take `COc1ccc(/C=C2\OC(=O)C(Cl)=C2c2ccc(OC)cc2)cc1`: the TGI in the test with NCI-H522 lung, in the test with MDA-N, in the test with HOP-62 NSCLC, in the test with BT-549 breast, in the test on DU-145 prostate and with IGROV1 ovarian was greater than 100 µM each time. Also, the TGI with U251 CNS, in the test with LOX IMVI melanoma, in the test on NCI-H460 lung, in the test on SN12C renal, in the test with SK-MEL-5 melanoma and with MALME-3M melanoma was greater than 100 µM throughout. Further, the TGI in the test on M14 melanoma, in the test with UACC-62 melanoma, with UO-31 renal and in the test on HS 578T breast was greater than 100 µM in each case.

For `CCOC(=O)/C(C)=C\[C@@]1(C)O[C@@H](C)[C@@](C)(OC(C)=O)[C@@H]1OC(C)=O`, the TGI in the test with NCI-H522 lung was 62.7 µM; with MDA-N, greater than 100 µM; with HOP-62 NSCLC, greater than 100 µM; in the test with DU-145 prostate, greater than 100 µM; in the test with OVCAR-5 ovarian it was greater than 100 µM; in the test on MCF7 breast, greater than 100 µM. Besides, the TGI in the test with IGROV1 ovarian, in the test on U251 CNS, in the test on LOX IMVI melanoma, in the test with NCI-H460 lung, in the test on SN12C renal and with SK-MEL-5 melanoma was greater than 100 µM in each case. For the same compound, the TGI with HCC-2998 colon, in the test on MALME-3M melanoma, in the test on M14 melanoma, with UACC-62 melanoma and with HS 578T breast was greater than 100 µM throughout.

In the case of `CCOC(=O)/C(O)=C(/C=N\C(=S)Nc1ccccc1Cl)C(=O)OCC`, the TGI in the test on NCI-H522 lung, in the test on MDA-N, in the test with HOP-62 NSCLC, in the test with DU-145 prostate, in the test with OVCAR-5 ovarian and in the test on RXF 393 renal was greater than 100 µM in each case. Besides, the TGI with MCF7 breast, in the test with IGROV1 ovarian, with U251 CNS, with LOX IMVI melanoma, in the test on NCI-H460 lung and in the test with SN12C renal was greater than 100 µM in each case. Moreover, the TGI in the test with SK-MEL-5 melanoma, in the test on HCC-2998 colon, in the test on MALME-3M melanoma, in the test with M14 melanoma, with UACC-62 melanoma and with UO-31 renal was greater than 100 µM in each case. This compound came in with a TGI in the test with HS 578T breast greater than 100 µM.

For `CCc1nnc(CC)n1NCCCC(=O)O`, the TGI in the test on NCI-H522 lung, in the test on MDA-N, in the test on HOP-62 NSCLC, in the test with BT-549 breast, with DU-145 prostate and with OVCAR-5 ovarian was greater than 100 µM throughout. Also, the TGI in the test with RXF 393 renal, in the test on MCF7 breast, in the test with IGROV1 ovarian, in the test on U251 CNS, with LOX IMVI melanoma and with SN12C renal was greater than 100 µM throughout. Further, the TGI in the test on SK-MEL-5 melanoma, in the test with HCC-2998 colon, with M14 melanoma, in the test on UACC-62 melanoma and in the test with UO-31 renal was greater than 100 µM in each case.

Turning to `CC(C)c1ccccc1SC1CC(=O)CC(Sc2ccccc2C(C)C)C12O[C@H](c1ccccc1)[C@@H](c1ccccc1)O2` (stereo partly specified), the TGI in the test with MDA-N is 47.5 µM; in the test on HOP-62 NSCLC it was greater than 100 µM; in the test with BT-549 breast, greater than 100 µM; in the test on DU-145 prostate it was greater than 100 µM; in the test on OVCAR-5 ovarian it was greater than 100 µM; in the test with RXF 393 renal, 42 µM. Further, the TGI in the test with MCF7 breast was greater than 100 µM; in the test with IGROV1 ovarian, greater than 100 µM; in the test with U251 CNS, 40.1 µM; in the test on LOX IMVI melanoma, 97.4 µM; in the test with NCI-H460 lung, greater than 100 µM; in the test on SN12C renal, 47.9 µM. Further, the TGI was greater than 100 µM in the test with SK-MEL-5 melanoma, greater than 100 µM in the test on HCC-2998 colon, 40.8 µM in the test on M14 melanoma and 96.4 µM in the test on UACC-62 melanoma.

Take `COc1ccccc1C1CC(=O)CC(c2ccccc2OC)C12C(=O)NC(=S)NC2=O` (stereo unspecified): the TGI in the test with NCI-H522 lung is greater than 100 µM; with MDA-N, 52.5 µM; with HOP-62 NSCLC, greater than 100 µM; in the test with BT-549 breast, greater than 100 µM; in the test with DU-145 prostate, greater than 100 µM; in the test with OVCAR-5 ovarian it was greater than 100 µM. Moreover, the TGI in the test on RXF 393 renal, in the test with MCF7 breast, with IGROV1 ovarian, with U251 CNS, with LOX IMVI melanoma and in the test on NCI-H460 lung was greater than 100 µM in each case. The TGI in the test with SN12C renal, with SK-MEL-5 melanoma, in the test on HCC-2998 colon, in the test on MALME-3M melanoma, in the test on M14 melanoma and in the test with UACC-62 melanoma was greater than 100 µM each time. The TGI in the test on UO-31 renal was greater than 100 µM.
